“Also recorded” adds a separate entry of the source.
Test system: organo-typical cultures of the hippocampus
Assay: Inflammation-provoked degeneration of organo-typical hippocampal slice cultures, propidium iodide fluorescence
Format: cell-based, Sprague-Dawley rats
Conditions: for protection of the neural tissue against degeneration (propidium iodide staining): reagent incubated over 48 hours together with LPS (200 ηg/ml) and GM-CSF (1 ηg/ml); for degeneration of the tissue / neurons (propidium iodide staining), cytokin in combination with LPS: cytokin plus LPS (200 μm/ml [sic] in the source, 200 ηg/ml), 48 hours, M-CSF 10 ηg/ml, IFNy 30 ηg/ml, GM-CSF 1 ηg/ml
Protocol: For the preparation of organo-typical cultures of the hippocampus, 7 to 8 day-old Sprague-Dawley rats were used. From the isolated hippocampus of these animals ca. 400 μm thick slices were prepared, each approximately comprising 20 cell layers. […] The slices were able to be cultured in 6-pore culture plates for up to 3 weeks through changing the medium below the membrane.
All the incubations were carried out in a medium that contained a minimum of 50% of essential medium/HEPES, 25% of Hank's balanced salt solution and 25% of heat-inactivated horse serum.
The degeneration of the tissue was rendered visible by means of a propidium iodide-fluorescence of the cells, which, because of the injury sustained, could no longer prevent, […], diffusion into the cell nucleus and staining of the DNA. Consequently, the red fluorescence above a threshold value was evaluated as the signal for the degeneration of cells. The degree of degeneration per slice was expressed as the percentage of the total surface that the red values lay above the threshold.
Here, both reagents were incubated over 48 hours with LPS and GM-CSF. Thus, for working in this assay, both steroidal as well as non-steroidal reagents were used.
Organo-typical cultures were incubated with LPS either alone or in combination with the pro-inflammatory cytokins GM-CSF and M-CSF over 48 hours. The injury to the tissue (cell mortality) was established by means of propidium iodide staining (A) and quantified by means of an automated picture analysis (B).

| Molecule | protection of the neural tissue against degeneration (propidium iodide staining) | degeneration of the tissue / neurons (propidium iodide staining), cytokin in combination with LPS | degeneration / injury of the tissue (propidium iodide staining), substance alone (incubated alone over 48 hours) |
| --- | --- | --- | --- |
| CC(=O)Oc1ccccc1C(=O)O [acetyl salicylic acid, reference compound] | complete protection of the neural tissue; also recorded: protected | – | – |
| CC(C)Cc1ccc(C(C)C(=O)O)cc1 (stereo not drawn) [iboprufen, reference compound] | protective activity | – | – |
| GM-CSF: Granulocyte Macrophage Colony-Stimulating Factor, pro-inflammatory cytokin | – | dramatic degeneration of neurons; also recorded: maximum injury | did not lead to any detectable injury |
| IFNy: pro-inflammatory cytokin that activates the microglia and can induce MHC expression | – | very strong degeneration of the tissue | – |
| M-CSF: pro-inflammatory cytokin that activates microglia (protein, UniProt P09603 33-554, looked up) Macrophage colony-stimulating …: EEVSEYCSHMIGSGHLQSLQRLIDSQMETSCQITFEFVDQEQLKDPVCYLKKAFLLVQDIMEDTMRFRDNTPNAIAIVQLQELSLRLKSCFTKDYEEHDKACVRTFYETPLQLLEKVKNVFNETKNLLDKDWNIFSKNCNNSFAECSSQDVVTKPDCNCLYPKAIPSSDPASVSPHQPLAPSMAPVAGLTWEDSEGTEGSSLLPGEQPLHTVDPGSAKQRPPRSTCQSFEPPETPVVKDSTIGGSPQPRPSVGAFNPGMEDILDSAMGTNWVPEEASGEASEIPVPQGTELSPSRPGGGSMQTEPARPSNFLSASSPLPASAKGQQPADVTGTALPRVGPVRPTGQDWNHTPQKTDHPSALLRDPPEPGSPRISSLRPQGLSNPSTLSAQPQLSRSHSSGSVLPLGELEGRRSTRDRRSPAEPEGGPASEGAARPLPRFNSVPLTDTGHERQSEGSFSPQLQESVFHLLVPSVILVLLAVGGLLFYRWRRRSHQEPQRADSPLEQPEGSPLTQDDRQVELPV | – | dramatic degeneration of neurons; also recorded: less precipitous | – |
